Assay results reported in patent publication US6218163A, “Stable biocatalysts for ester hydrolysis” (Thermogen, Inc., priority 1996, dated 2001).

Assays:
Assay type in all cases: biochemical
[1] = system: Thermus sp. T351 esterase E100; assay: Inhibition by reaction components on the hydrolysis of p-nitrophenylproprionate by E100
Method: Measurement of E100 Enzyme Activity--Esterase activity is measured by monitoring the hydrolysis of p-nitrophenylproprionate (pNP), or in some cases MUB. Each substrate is dissolved in acetonitrile and added to the reaction mixture (100 μM final concentration) which contain 50 mM Tris HCl pH 8.5 adjusted for temperature dependent pH variation. Reactions are thermally equilibrated at 37° C. for 5 minutes prior to initiation of the reaction by addition of 10 μL of enzyme sample, while control reactions substituted equivalent amounts of BSA. The reaction is monitored spectrophotometrically at 405 nm ε=17 mM^-1 cm^-1 for pNP and 360 nm ε=7.9 mM^-1 cm^-1 for MUB.
The rates of enzyme catalyzed hydrolysis are corrected for the spontaneous hydrolysis of the substrate. Protein concentrations are determined by either the absorbance at 280 nm or by Lowery assay. Crude activity is determined by a colorimetric assay based on the hydrolysis of 5-bromo-4-chloro-3-indoyl esters suspended in a 0.7% agar matrix on microtiter plates. A 0.1 mg/ml solution of the indolyl derivative is dissolved in a minimal volume of acetonitrile and added to a warm solution of 0.7% agar containing 0.1M phosphate buffer pH 7.5. 10 μL of this solution is distributed to microtiter plates which, when cooled, could be used with as much as 100 μL of enzyme sample and incubated at temperatures from ambient to >65° C.

[2] = system: Thermus sp. T351 esterase E101
[3] = system: Thermus sp. T351 esterase E100; assay: Kinetic analysis of E100: concentration-dependent initial rates of nitrophenyl proprionate hydrolysis; conditions: p-NP as substrate, pH 8.5, 50 mM Tris-HCl, 37° C.
Method: FIG. 6. Kinetic analysis of E100.
Determination of Kinetic Characteristics--Kinetic characteristics are determined by measuring the concentration dependent initial rates of enzyme catalyzed hydrolysis of nitrophenyl proprionate. Reactions are run at pH 8.5 in 50 mM Tris-HCl buffer equilibrated to 37° C. and initiated by addition of enzyme. Rates are determined from the absorbance changes due to formation of product nitrophenol at 405 nm. Rates are corrected for the spontaneous hydrolysis of substrate during the course of the reaction. Concentration vs. rate data are analyzed by both double reciprocal plots and by HanesWolff plots to determine Km, Vmax and Vmax/Km.

In the case of `OCCS` [BME, β-mercaptoethanol], the “Relative Rate” value ([1]; additive 10 mM, None = 100, substrate p-nitrophenylproprionate) is reported as 99%.
For `O=C(O)CN(CCN(CC(=O)O)CC(=O)O)CC(=O)O` [EDTA], the “Relative Rate” value ([1]; pH 8.5, 1000 µM) was 96.
For `O=S(=O)(F)Cc1ccccc1` [PMSF], the “Relative Rate” value ([1]; additive 0.1 mM, None = 100, substrate p-nitrophenylproprionate) was 0% and the “Inhibition of E101 (in words)” value [2] was “inhibited”.
`CCC(=O)Oc1ccc([N+](=O)[O-])cc1` [p-NP, p-nitrophenylproprionate] was tested, and the Vmax [3] was 1.8×10^-5 Mmin^-1 and the Km ([3]; Lineweaver-Burke and Eadie-Hofstee analysis) was 72 µM.
In the case of `Cc1ccc(S(=O)(=O)F)cc1` [tosyl fluoride], the “Inhibition of E100 (in words)” value [1] is reported as “effectively inhibited”.
